For assay [1], the target named is LSD1 (Homo sapiens (Human), UniProt O60341). Put plainly: In vitro enzyme inhibition assay - LSD1 (HTRF). Format: biochemical. (TR-FRET usually uses a lanthanide donor and a delayed reading to cut background.)
For assay [2], the system named is NCI-H69 cells. Put plainly: In vitro cell inhibition assay - NCI-H69 cell proliferation (CellTiter-Glo). The assay is classed as cell-based. As to conditions: Homo sapiens, NCI-H69, H69 small cell lung cancer cell proliferation. In outline: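 Luminescence from CellTiter-Glo reagent served as the viability read-out after cells were exposed to compounds for 7 days at 37° C. Eight concentrations in a 5-fold series were tested in medium with 20% FBS. Inhibition was normalised to untreated and cell-free wells before IC50 fitting.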
(In ATP-based viability assays light output follows the ATP content of the culture.)

Assay [3] addresses HDAC8 (Homo sapiens (Human), UniProt Q9BY41). Nature of the assay: In vitro enzyme inhibition assay - HDAC (HDAC-Glo I/II), HDAC8. As to conditions: read-out: HDAC IC50 (nM) HDAC 8. The assay is classed as biochemical. In outline:
(§1)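 Inhibition was measured with the HDAC-Glo I/II luminescent assay, testing compound as an 8-point, 5-fold dilution series from a 1 mM DMSO stock. Luminescence (RLU) was normalized to no-inhibitor and no-enzyme controls, and IC50 was derived by four-parameter variable-slope fitting.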

In assay [4] the test system is DU145 cells. Nature of the assay: In vitro cell inhibition assay - DU145 cell proliferation (CellTiter-Glo). Format: cell-based. As to conditions: Homo sapiens, DU-145, Du145 prostate cancer cell proliferation. In outline:
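Viability read-out was CellTiter-Glo luminescence after a 6-day, 37° C exposure of DU145 cells (1×10^3/well, 10% FBS RPMI-640) to 8 compound concentrations in 5-fold steps.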

In assay [5] the test system is NCI-H1417 cells. Put plainly: In vitro cell inhibition assay - H1417 cell proliferation (CellTiter-Glo). Format: cell-based. Conditions: Homo sapiens, NCI-H1417, H1417 small cell lung cancer cell proliferation. In outline: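 Cells exposed to 8 compound concentrations (5-fold dilutions) in BEGM with 10% FBS for 7 days at 37° C., 5% CO2. Viable cells measured by CellTiter-Glo luminescence; inhibition versus no-inhibitor and no-cell controls, IC50 fitted.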

In assay [6] the test system is NCI-H526 cells. Put plainly: In vitro cell inhibition assay - NCI-H526 cell proliferation (CellTiter-Glo). As to conditions: Homo sapiens, NCI-H526, 120 h, H526 small cell lung cancer cell proliferation, 5 days. Format: cell-based. In outline: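 NCI-H526 cells plated at 1×10^3 per well overnight, then treated with 8 concentrations (5-fold dilutions) in RPMI-640 with 10% FBS for 5 days at 37° C., 5% CO2. Viable cells quantified by CellTiter-Glo luminescence; IC50 fitted from inhibition rates relative to no-inhibitor and no-cell controls.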

The target of assay [7] is HDAC1 (Homo sapiens (Human), UniProt Q13547). Put plainly: In vitro enzyme inhibition assay - HDAC (HDAC-Glo I/II), HDAC1. The assay is classed as biochemical. As to conditions: read-out: HDAC IC50 (nM) HDAC 1. In outline: as §1
Assay [8] deals with pan-HDAC. Nature of the assay: In vitro enzyme inhibition assay - HDAC (HDAC-Glo I/II), pan-HDAC. Format: biochemical. In outline:
as §1

The structures appear in SMILES notation. Counter-ions that a name gives are not always drawn.

Sequence of HDAC1 (Q13547 whole entry): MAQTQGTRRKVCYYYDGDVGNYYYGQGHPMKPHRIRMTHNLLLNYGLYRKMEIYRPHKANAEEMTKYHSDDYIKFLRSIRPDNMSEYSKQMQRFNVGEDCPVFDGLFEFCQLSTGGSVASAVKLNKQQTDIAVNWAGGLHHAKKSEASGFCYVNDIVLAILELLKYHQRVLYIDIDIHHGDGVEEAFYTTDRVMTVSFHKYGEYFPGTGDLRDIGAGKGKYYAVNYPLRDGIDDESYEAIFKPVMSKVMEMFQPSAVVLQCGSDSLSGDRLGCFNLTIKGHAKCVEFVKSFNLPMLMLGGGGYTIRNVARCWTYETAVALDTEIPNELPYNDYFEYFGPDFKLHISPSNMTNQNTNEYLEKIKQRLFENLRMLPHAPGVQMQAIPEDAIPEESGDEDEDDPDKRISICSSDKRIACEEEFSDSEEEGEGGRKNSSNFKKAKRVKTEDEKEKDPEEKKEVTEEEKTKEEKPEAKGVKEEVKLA
Sequence of HDAC8 (Q9BY41 whole entry): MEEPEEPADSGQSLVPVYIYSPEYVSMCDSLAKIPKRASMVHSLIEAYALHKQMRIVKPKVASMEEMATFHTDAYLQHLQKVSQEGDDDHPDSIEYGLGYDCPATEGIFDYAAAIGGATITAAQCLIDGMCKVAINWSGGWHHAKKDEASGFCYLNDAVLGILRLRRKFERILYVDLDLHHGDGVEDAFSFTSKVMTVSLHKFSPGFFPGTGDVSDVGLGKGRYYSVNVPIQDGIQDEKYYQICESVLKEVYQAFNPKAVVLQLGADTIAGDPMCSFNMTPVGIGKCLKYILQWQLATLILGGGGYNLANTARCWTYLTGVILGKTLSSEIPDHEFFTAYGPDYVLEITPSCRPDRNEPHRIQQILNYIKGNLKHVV

Take `CC(C)(O)COc1ccc(-c2cnc(N3CCC(NCc4ccc(/C=C/C(=O)NO)cc4)CC3)c(C#N)c2-c2ccc(C#N)c(F)c2)cc1O` [Example 143, (E)-3-(4-(((1-(3-Cyano-4-(4-cyano-3-fluorophenyl)-5-(3-hydroxy-4-(2-hydroxy-2-methylpropoxy)phenyl)pyridin-2-yl)piperidin-4-yl)amino)methyl)phenyl)-N-hydroxyacrylamide formate]: the IC50 worked out at 0.1 nM in assay [1]; 16.8 nM in assay [2]; 111 nM in assay [3]; 23.7 nM in assay [4]; 1.03 nM in assay [5]; 18.1 nM in assay [6]. For the same compound, the half-inhibitory concentration (IC50) in assay [7] worked out at 1.25 nM; in assay [8], 1.7 nM.

For `COc1ccc(-c2cnc(N3CCC(NCc4ccc(/C=C/C(=O)NO)cc4)CC3)c(C)c2-c2ccc(C#N)c(F)c2)cc1O` [Example 144, (E)-3-(4-(((1-(4-(4-Cyano-3-fluorophenyl)-5-(3-hydroxy-4-methoxyphenyl)-3-methylpyridin-2-yl)piperidin-4-yl)amino)methyl)phenyl)-N-hydroxyacrylamide hydrochloride], the IC50 was 1.07 nM in assay [1]; 11.2 nM in assay [2]; 91.6 nM in assay [3]; 9.28 nM in assay [4]; 11.2 nM in assay [5]; 8.4 nM in assay [6]. The IC50 in assay [7] amounted to 0.21 nM; in assay [8], 0.86 nM.

As to `COc1ccc(-c2cnc(N3CCC(NCc4ccc(/C=C/C(=O)NO)cc4)CC3)c(C#N)c2-c2ccc([N+](=O)[O-])cc2)cc1O` [Example 150, (E)-3-(4-(((1-(3-Cyano-5-(3-hydroxy-4-methoxyphenyl)-4-(4-nitrophenyl)pyridin-2-yl)piperidin-4-yl)amino)methyl)phenyl)-N-hydroxyacrylamide formate], the IC50 in assay [1] came out at 0.59 nM; in assay [2], 16.9 nM; in assay [3], 89.3 nM; in assay [4], 9.26 nM; in assay [5], 5.53 nM; in assay [6], 9.84 nM. Further, the IC50 in assay [7] came to 0.21 nM; in assay [8] it was 1.3 nM.

The IC50 is the concentration at which inhibition is half-maximal.

For the origin of these results see US20250304549A1, “HYDROXYAMIDE DERIVATIVE AND USE THEREOF” (SICHUAN HUIYU PHARMACEUTICAL CO., LTD., priority 2022, published 2025).
